Experiments:
[1] = Inhibition of human rhinovirus 3C protease; set-up: species or system Human rhinovirus sp.
[2] = Inhibition of human rhinovirus 3C protease incubated for 1 hr by solid phase fluorescent assay; set-up: species or system Human rhinovirus sp.

SMILES | IC50 [1] [µM] | IC50 [2] [µM]
C[C@H]1CC2=C(C(=O)c3c(O)cc(O)cc3C2=O)[C@H](O)O1 | 47 | 51.8
C[C@H]1CC2=C(C(=O)c3ccc(O)cc3C2=O)[C@H](O)O1 (racemic) |  | 20.3
C[C@H]1CC2=C(CO1)C(=O)c1ccc(O)cc1C2=O (racemic) |  | 30.9
CC(C)Oc1ccc2c(c1)C(=O)C1=C(CO[C@@H](C)C1)C2=O (racemic) |  | 35.7
